According to patent US20170065564A1, “BIS-CYCLIC GUANIDINE COMPOUND COMPOSITIONS, METHODS OF USE AND TREATMENT THEREOF” (University of South Florida, priority 2014, published 2017):
Converted amounts (≈) assume the structure as drawn. Like-named read-outs stand apart in the source and are kept apart here.

Columns and labels:
[1] = tested on: E. cloacae; assay type: cell-based, Enterobacter cloacae; settings: 8 passages, concentration doubled each day
Description: ESKAPE pathogens were grown overnight in liquid media at 37° C. These cultures were then diluted 1:100 in fresh media, and seeded into a 96-well plate. Lead bis-cyclic guanidines or control agents were added to respective wells at half MIC concentrations. […] These were then grown overnight, and the procedure repeated for a total of eight days.

[2] = tested on: Klebsiella pneumoniae; assay: MIC micro broth dilution assay; assay type: cell-based; settings: for stacked score activity, 100/MIC, K: K. pneumoniae; for MIC: Klebsiella pneumoniae
Outline: (§1)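 Multidrug-resistant clinical ESKAPE isolates were grown overnight (Gram-positives in TSB, Gram-negatives in LB), diluted 1:1,000 and exposed to decreasing compound concentrations in DMF (≤2.0% DMF).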

[3] = tested on: human A549 cells; assay: Cytotoxicity assay (MTT); assay type: cell-based; settings: for IC50: Homo sapiens, A549, MTT, 48 hours
Description: Cytotoxicity assays were performed using human A549 cells (adenocarcinomic human alveolar epithelial cells), as described by us previously.^44 Briefly, cells were cultured in F-12K Nutrient mixture (Kaighn's Modification) media containing L-glutamine, supplemented with 10% fetal bovine serum and 1% penicillin-streptomycin for 3 days at 37° and 5% CO2. Cells were then diluted to 1.0×10^5 ml^−1 using F-12K supplemented media, and added to 96 well tissue culture plates at a volume of 100 μl. Plates were incubated for 24 hours at 37° C. and 5% CO2, allowing the cells to adhere to the plastic. […] Plates were then incubated for 48 hours at 37° C. and 5% CO2. After 48 hours the media was removed, and new media added containing MTT (3-(4, 5-dimethylthiazol-2-yl)-2, 5-diphenyltetrazolium bromide), followed by incubation for four hours at 37° C. and 5% CO2. After 4 h, 50 μl of media was removed, replaced with DMSO and incubated for ten minutes at 37° C. in order to solubilize any formazan produced. A Biotek plate reader was used to measure the absorbance of formazan production at […], and IC50 values were determined for each of the five compounds. Front runners were solvated in 45% w/v (2-hydroxypropyl)-β-cyclodextrin in water for these studies; which was also used alone as a negative control. IC50 values were determined for each compound by comparison to vehicle only controls, to assess toxicity to human cells.

[4] = tested on: S. aureus; assay: Resistance serial passage assay; assay type: cell-based, Staphylococcus aureus; settings: 8 passages, concentration doubled each day
Description: ESKAPE pathogens were grown overnight in liquid media at 37° C. These cultures were then diluted 1:100 in fresh media, and seeded into a 96-well plate. Lead bis-cyclic guanidines or control agents were added to respective wells at half MIC concentrations. Plates were then incubated for 24 hours at 37° C., with bacteria removed from these cultures on the following day, to inoculate fresh media (1:100 dilution) containing compounds at a 2-fold higher concentrations. These were then grown overnight, and the procedure repeated for a total of eight days. […] Each experiment was performed in triplicate, yielding identical results.

[5] = tested on: Enterobacter cloacae; assay: Minimal bactericidal concentration (MBC) assay; assay type: cell-based; settings: Enterobacter cloacae; purified compound; read-out: MBC90
Description: (§2) Briefly, compound was washed by centrifugation and serial dilution, before plating on Tryptic Soy Agar (TSA). Plates were incubated for 24 hours at 37° C. and cell viability assessed by determining CFU/ml at each concentration, for every compound. Percent recovery was then determined compared to CFU/ml from no drug controls. All concentrations and controls were tested using three biological replicates, alongside two technical replicates for each data point.

[6] = tested on: Enterococcus faecium; assay: Minimal bactericidal concentration (MBC) assay; assay type: cell-based; settings: purified compound, read-out: MBC90
Description: as §2

[7] = tested on: Pseudomonas aeruginosa; assay: Minimal bactericidal concentration (MBC) assay; assay type: cell-based; settings: Pseudomonas aeruginosa; purified compound; read-out: MBC90
Description: as §2

[8] = tested on: Klebsiella pneumoniae; assay: Minimal bactericidal concentration (MBC) assay; assay type: cell-based; settings: purified compound, read-out: MBC90
Description: as §2

[9] = tested on: Acinetobacter baumannii; assay: Minimal bactericidal concentration (MBC) assay; assay type: cell-based; settings: purified compound, read-out: MBC90
Description: as §2

[10] = tested on: Staphylococcus aureus; assay: Minimal bactericidal concentration (MBC) assay; assay type: cell-based; settings: purified compound, read-out: MBC90
Description: as §2

[11] = tested on: Acinetobacter baumannii; assay: MIC micro broth dilution assay; assay type: cell-based; settings: for stacked score activity, 100/MIC, A: A. baumannii; for MIC: Acinetobacter baumannii
Outline: as §1

[12] = panel of K. pneumoniae clinical isolates

CCCC[C@H]1CN(CCCC[C@H]2CNC(=N)N2CCc2cccc(C(F)(F)F)c2)C(=N)N1CCCCC1CCCCC1 [Compound 2, (S)-4-butyl-3-(4-cyclohexylbutyl)-1-(4-((S)-2-imino-3-(3-(trifluoromethyl)phenethyl)imidazolidin-4-yl)butyl)imidazolidin-2-imine] was tested, and the “increase in MIC after serial passage” value [1] was 8 fold, the “stacked score activity, 100/MIC, K” value [2] was 20 and the MIC ([2]; K. pneumoniae isolate 1408) was 2 µM (≈ 1.18 µg/mL). For the same compound, the MIC ([2]; K. pneumoniae isolate 1409) was 3 µM (≈ 1.77 µg/mL), the MIC ([2]; K. pneumoniae isolate 1410) was 2 µM (≈ 1.18 µg/mL) and the MIC ([2]; K. pneumoniae isolate 1411) was 2 µM (≈ 1.18 µg/mL). It also gave an MIC ([2]; K. pneumoniae isolate 1412) of 2 µM (≈ 1.18 µg/mL), an MIC ([2]; K. pneumoniae isolate 1413) of 2 µM (≈ 1.18 µg/mL) and an MIC ([2]; K. pneumoniae isolate 1433) of 2 µM (≈ 1.18 µg/mL). It also gave an MIC ([2]; K. pneumoniae isolate 1434) of 3 µM (≈ 1.77 µg/mL), an MIC ([2]; K. pneumoniae isolate 1440) of 5 µM (≈ 2.95 µg/mL) and an MIC ([2]; K. pneumoniae isolate 1441) of 2 µM (≈ 1.18 µg/mL). The MIC ([2]; purified compound, Table 1) was 1.52 µM (≈ 0.898 µg/mL), the “concentration inhibiting 70% of strains” value [2, 12] was 2 µM and the “concentration inhibiting 90% of isolates” value [2, 12] was 5 µM. For the same compound, the IC50 [3] was 125 µM, the “increase in MIC after serial passage” value [4] was “two-fold” and the MBC [5] was 4.15 µM (≈ 2.45 µg/mL). For the same compound, the MBC ([6]; Enterococcus faecium) was 1.66 µM (≈ 0.981 µg/mL), the MBC [7] was 2.32 µM (≈ 1.37 µg/mL) and the MBC ([8]; Klebsiella pneumoniae) was 3.98 µM (≈ 2.35 µg/mL). For the same compound, the MBC ([9]; Acinetobacter baumannii) was 2.83 µM (≈ 1.67 µg/mL), the MBC ([10]; Staphylococcus aureus) was 2.03 µM (≈ 1.2 µg/mL) and the “stacked score activity, 100/MIC, A” value [11] was 25. For the same compound, the MIC ([11]; A. baumannii isolate 1403) was 2 µM (≈ 1.18 µg/mL), the MIC ([11]; A. baumannii isolate 1643) was 2 µM (≈ 1.18 µg/mL) and the MIC ([11]; A. baumannii isolate 1644) was 2 µM (≈ 1.18 µg/mL). For the same compound, the MIC ([11]; A. baumannii isolate 1647) was 2 µM (≈ 1.18 µg/mL), the MIC ([11]; A. baumannii isolate 1648) was 2 µM (≈ 1.18 µg/mL) and the MIC ([11]; A. baumannii isolate 1649) was 2 µM (≈ 1.18 µg/mL). For the same compound, the MIC ([11]; A. baumannii isolate 1650) was 2 µM (≈ 1.18 µg/mL), the MIC ([11]; A. baumannii isolate 1651) was 2 µM (≈ 1.18 µg/mL) and the MIC ([11]; A. baumannii isolate 1653) was 2 µM (≈ 1.18 µg/mL). It also gave an MIC ([11]; A. baumannii isolate 1654) of 2 µM (≈ 1.18 µg/mL) and an MIC ([11]; purified compound, Table 1) of 1.52 µM (≈ 0.898 µg/mL).

In the case of CCCCCCCN1C(=N)N(CCCC[C@H]2CNC(=N)N2CCc2cccc(C(F)(F)F)c2)C[C@@H]1CC1CCCCC1 [Compound 7], the “increase in MIC after serial passage” value [1] is reported as 8 fold, the “stacked score activity, 100/MIC, K” value [2] is reported as 20 and the MIC ([2]; K. pneumoniae isolate 1408) is reported as 2 µM (≈ 1.18 µg/mL). The MIC ([2]; K. pneumoniae isolate 1409) was 3 µM (≈ 1.77 µg/mL), the MIC ([2]; K. pneumoniae isolate 1410) was 2 µM (≈ 1.18 µg/mL) and the MIC ([2]; K. pneumoniae isolate 1411) was 2 µM (≈ 1.18 µg/mL). It also gave an MIC ([2]; K. pneumoniae isolate 1412) of 2 µM (≈ 1.18 µg/mL), an MIC ([2]; K. pneumoniae isolate 1413) of 2 µM (≈ 1.18 µg/mL) and an MIC ([2]; K. pneumoniae isolate 1433) of 2 µM (≈ 1.18 µg/mL). It also gave an MIC ([2]; K. pneumoniae isolate 1434) of 5 µM (≈ 2.95 µg/mL), an MIC ([2]; K. pneumoniae isolate 1440) of 3 µM (≈ 1.77 µg/mL) and an MIC ([2]; K. pneumoniae isolate 1441) of 2 µM (≈ 1.18 µg/mL). For the same compound, the MIC ([2]; purified compound, Table 1) was 1.52 µM (≈ 0.898 µg/mL), the “concentration inhibiting 90% of isolates” value [2, 12] was 5 µM and the IC50 [3] was 65.7 µM. The “A549 cell recovery compared to vehicle only controls” value ([3]; above 45 μM, at concentrations up to 225 μM) was no less than 33%, the “increase in MIC after serial passage” value [4] was “four-fold” and the MBC [5] was 6.36 µM (≈ 3.76 µg/mL). The MBC ([6]; Enterococcus faecium) was 2.16 to 3.28 µM (≈ 1.28 to 1.94 µg/mL), the MBC [6] was 3.27 µM (≈ 1.93 µg/mL) and the MBC [7] was 13.7 µM (≈ 8.12 µg/mL). It also gave an MBC ([8]; Klebsiella pneumoniae) of 2.16 to 3.28 µM (≈ 1.28 to 1.94 µg/mL), an MBC [8] of 2.16 µM (≈ 1.28 µg/mL) and an MBC ([9]; Acinetobacter baumannii) of 2.16 to 3.28 µM (≈ 1.28 to 1.94 µg/mL). The MBC [9] was 3.23 µM (≈ 1.91 µg/mL), the MBC ([10]; Staphylococcus aureus) was 2.16 to 3.28 µM (≈ 1.28 to 1.94 µg/mL) and the MBC [10] was 3.28 µM (≈ 1.94 µg/mL). The “stacked score activity, 100/MIC, A” value [11] was 25, the MIC ([11]; A. baumannii isolate 1403) was 2 µM (≈ 1.18 µg/mL) and the MIC ([11]; A. baumannii isolate 1643) was 2 µM (≈ 1.18 µg/mL). It also gave an MIC ([11]; A. baumannii isolate 1644) of 2 µM (≈ 1.18 µg/mL), an MIC ([11]; A. baumannii isolate 1647) of 2 µM (≈ 1.18 µg/mL) and an MIC ([11]; A. baumannii isolate 1648) of 2 µM (≈ 1.18 µg/mL). The MIC ([11]; A. baumannii isolate 1649) was 2 µM (≈ 1.18 µg/mL), the MIC ([11]; A. baumannii isolate 1650) was 2 µM (≈ 1.18 µg/mL) and the MIC ([11]; A. baumannii isolate 1651) was 2 µM (≈ 1.18 µg/mL). It also gave an MIC ([11]; A. baumannii isolate 1653) of 2 µM (≈ 1.18 µg/mL), an MIC ([11]; A. baumannii isolate 1654) of 2 µM (≈ 1.18 µg/mL) and an MIC ([11]; purified compound, Table 1) of 1.52 µM (≈ 0.898 µg/mL).
